Source: patent US7041785B1, “B1-bradykinin receptor antagonists and use thereof” (Université de Sherbrooke, priority 1996, dated 2006)
Non-standard residues stand in square brackets, D forms with d. Residues, ends and D or L forms follow the SMILES beside them. Tyr(3,5-I2) = N[C@@H](Cc1cc(I)c(O)c(I)c1)C(=O)O; Oic = O=C(O)[C@@H]1C[C@@H]2CCCC[C@@H]2N1; 2Nal = N[C@@H](Cc1ccc2ccccc2c1)C(=O)O; d2Nal = N[C@H](Cc1ccc2ccccc2c1)C(=O)O; Hyp = O=C(O)[C@@H]1C[C@@H](O)CN1; Tic = O=C(O)[C@@H]1Cc2ccccc2CN1; dTic = O=C(O)[C@H]1Cc2ccccc2CN1; 2Thi = N[C@@H](Cc1cccs1)C(=O)O; Ahx = NCCCCCC(=O)O; Sar = CNCC(=O)O

Experiments:
[1] = biological target: T1, B1 receptor (Oryctolagus cuniculus, UniProt P48748); assay: cell-based; conditions: for Kb: Rb.A. pA2, apparent affinity as antagonist vs desArg9BK, antagonist applied 10 min before, Inactive = no detectable antagonistic effect at ≦ 10 μg/ml; for Rb.A. α^E: residual agonistic activity at 10 μg/mL in comparison with desArg9BK
T1 sequence (P48748 1-352): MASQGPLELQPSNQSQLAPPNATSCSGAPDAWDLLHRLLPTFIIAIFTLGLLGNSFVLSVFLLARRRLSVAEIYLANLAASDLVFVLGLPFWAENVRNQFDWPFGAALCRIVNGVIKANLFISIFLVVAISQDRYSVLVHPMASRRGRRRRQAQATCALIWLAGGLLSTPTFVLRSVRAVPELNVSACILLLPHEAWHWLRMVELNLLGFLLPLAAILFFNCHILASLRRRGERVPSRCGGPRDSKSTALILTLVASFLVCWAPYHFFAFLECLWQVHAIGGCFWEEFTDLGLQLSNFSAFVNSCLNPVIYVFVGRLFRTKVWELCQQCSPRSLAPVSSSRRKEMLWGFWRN
How it was run: (§1)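 Isolated rabbit jugular vein (captopril 1 μmol/L), guinea pig ileum, endothelium-free rabbit aorta and human umbilical vein, in Krebs at 37 °C, with isometric tension recorded. Agonism was tested at 10 μg/mL.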

[2] = biological target: T2, B2 receptor (Cavia porcellus, UniProt O70526); assay: cell-based; conditions: for G.P.I. pA2: vs BK, Inactive = no detectable antagonistic effect at ≦ 10 μg/ml, F.ag. full agonist, P.ag. partial agonist; for G.P.I. α^E: residual agonistic activity at 10 μg/mL in comparison with BK
T2 sequence (O70526 1-372): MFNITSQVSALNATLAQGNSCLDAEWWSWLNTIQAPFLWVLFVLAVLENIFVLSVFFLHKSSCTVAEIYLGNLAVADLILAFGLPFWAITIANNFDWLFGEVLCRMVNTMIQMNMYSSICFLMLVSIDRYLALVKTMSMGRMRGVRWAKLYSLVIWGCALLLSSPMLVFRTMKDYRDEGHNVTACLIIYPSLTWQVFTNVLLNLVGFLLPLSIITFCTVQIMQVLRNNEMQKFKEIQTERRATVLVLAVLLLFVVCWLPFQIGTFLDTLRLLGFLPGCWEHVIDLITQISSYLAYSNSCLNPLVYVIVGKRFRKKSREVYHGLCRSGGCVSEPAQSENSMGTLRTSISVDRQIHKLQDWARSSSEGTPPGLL
How it was run: as §1

[3] = biological target: T3, B2 receptor (Oryctolagus cuniculus, UniProt Q28642); assay: cell-based; conditions: for Rb.J.V. α^E: residual agonistic activity at 10 μg/mL in comparison with BK
T3 sequence (Q28642 1-367): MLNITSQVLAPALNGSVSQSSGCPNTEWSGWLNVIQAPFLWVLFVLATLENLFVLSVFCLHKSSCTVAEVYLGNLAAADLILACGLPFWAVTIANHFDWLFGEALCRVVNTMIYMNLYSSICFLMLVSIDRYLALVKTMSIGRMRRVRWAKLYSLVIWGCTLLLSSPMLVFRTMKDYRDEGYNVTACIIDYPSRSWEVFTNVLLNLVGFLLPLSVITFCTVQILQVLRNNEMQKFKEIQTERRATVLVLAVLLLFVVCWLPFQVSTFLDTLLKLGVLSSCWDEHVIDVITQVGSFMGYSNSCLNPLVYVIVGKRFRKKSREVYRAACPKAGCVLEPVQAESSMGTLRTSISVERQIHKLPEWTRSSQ
How it was run: as §1

[4] = biological target: T4, human B2 receptor (Homo sapiens, UniProt P30411); assay: Human umbilical vein bioassay in presence of Lys(Leu8)desArg9BK, B2 receptor; assay type: cell-based; conditions: vs BK, Lys(Leu8)desArg9BK 1 μmol/L present
T4 construct: Helical strips of HUV were prepared according to Gobeil et al; from tissue; host or cells: human umbilical vein helical strips
T4 sequence (P30411 1-391): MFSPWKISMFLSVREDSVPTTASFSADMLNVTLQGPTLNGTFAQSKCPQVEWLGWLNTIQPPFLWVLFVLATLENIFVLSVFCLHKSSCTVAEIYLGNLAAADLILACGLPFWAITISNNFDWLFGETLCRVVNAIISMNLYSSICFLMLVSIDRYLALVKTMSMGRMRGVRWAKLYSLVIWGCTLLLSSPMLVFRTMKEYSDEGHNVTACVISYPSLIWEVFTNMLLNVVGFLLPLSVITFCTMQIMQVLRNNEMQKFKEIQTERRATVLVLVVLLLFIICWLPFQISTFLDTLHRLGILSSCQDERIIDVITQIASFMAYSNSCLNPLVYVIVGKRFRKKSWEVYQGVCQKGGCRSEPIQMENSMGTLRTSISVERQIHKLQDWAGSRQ
From the text: Tissues were taken from New Zealand white rabbits (1.5–2.5 kg) and Dunken Hartley guinea pigs (250–350 g) of either sex, killed by stunning and exsanguination. Umbilical cords were taken from healthy women 22–40 years old after spontaneous delivery at term. The rabbit jugular vein (RbJV), the guinea pig ileum (GPI), two preparations containing B2 receptors, the rabbit aorta (RbA) (B1 receptor) and the human umbilical vein (HUV), a mixed preparation containing both B1 and B2 receptors^10, were used. Helical strips of RbJV treated with 1 μmol/L of captopril to avoid peptide degradation by the angiotensin-converting enzyme (ACE), alias kininase II were prepared according to Gaudreau et al.^11 Helical strips of RbA devoid of endothelium were prepared according to Furchgott and Bhadrakom^12. Longitudinal segments of GPI were prepared with the procedure described by Rang^13. Helical strips of HUV were prepared according to Gobeil et al.^10. The tissues were suspended in 10-ml organ baths containing warm (37EC), oxygenated (95% O2–5% CO2) Krebs solution of the following composition in mmol/L; NaCl: 118.1; KCl: 4.7; CaCl26H2O: 2.5; KH2PO4: 1.2; MgSO47H2O: 1.18; NaHCO3: 25.0 and D-Glucose: 5.5. The RbA and the HUV were stretched with an initial tension of 2 g, whereas the RbJV and the GPI were loaded with 0.5 g. Changes of tension produced by the various agents were measured with Grass isometric transducers (model FT 03C, Grass Instrument Co., Quincy, Mass.). […] Before testing the drugs, the tissues were allowed to equilibrate for 60–120 min during which time the tissues were repeatedly washed and the tension readjusted every 15 min.
At the beginning of each experiment, a submaximal dose of bradykinin (BK) (9 nmol/L), was applied repeatedly on the RbJV, the GPI or the HUV to ensure that tissues responded with stable contractions. […] A similar protocol was used for the HUV.
Repeated applications of a singl and double concentration of BK (on RbJV, GPI and HUV) and of desArg^9BK (RbA and HUV) were made in the absence and in presence of the various peptides to evaluate their apparent affinities as antagonists, in terms of pA2 (-log10 of the molar concentration of antagonist that reduces the effect of a double concentration of agonist to that of a single one)^14. The antagonists were applied 10 min before measuring the myotropic effects of either BK (the B2 receptor agonist) or desArg^9BK (the B1 receptor agonist). […] All kinin antagonists were initially applied to tissues at concentration of 10 μg/mL to measure their potential agonistic activities (α^E) in comparison with BK (in the B2 receptor preparations) or desArg^9BK (in the B1 receptor preparations).

Row | Structure (SMILES) | Kb [1] [µM] | G.P.I. pA2 [2] | Kb [3] [µM] | Human umbilical vein B2 receptor pA2 [4] | Rb.A. α^E [1] | G.P.I. α^E [2] | Rb.J.V. α^E [3] | Kb [2] [µM]
1 | CC[C@H](C)[C@H](NC(=O)[C@@H]1Cc2ccccc2CN1C(=O)[C@H](CO)NC(=O)[C@H](Cc1ccccc1)NC(=O)CNC(=O)[C@@H]1CCCN1C(=O)[C@@H]1CCCN1C(=O)[C@H](CCCNC(=N)N)NC(=O)[C@H](N)CCCNC(=N)N)C(=O)O [Compound 14, D-Arg(L-Tic^7, Ile^8)desArg^9BK] (H-[dR]RPPGFS[Tic]I-OH; N-terminus and C-terminus assumed) | > 9.12 | Inactive | 6.46 | Inactive |  |  |  | 
2 | CC(=O)N[C@@H](CCCCN)C(=O)N[C@@H](CCCNC(=N)N)C(=O)N1CCC[C@H]1C(=O)N1CCC[C@H]1C(=O)NCC(=O)N[C@@H](Cc1ccccc1)C(=O)N[C@@H](CO)C(=O)N[C@H](Cc1ccc2ccccc2c1)C(=O)N[C@@H](CC(C)C)C(=O)O [Compound 18, AcLys(D-βNal^7, Leu^8)desArg^9BK] (Ac-KRPPGFS[d2Nal]L-OH; C-terminus assumed) | 0.0123 | Inactive | > 8.71 | Inactive | 0 | 0 | 0 | 
3 | CC[C@H](C)[C@H](NC(=O)[C@H](Cc1ccc2ccccc2c1)NC(=O)[C@H](CO)NC(=O)[C@H](Cc1ccccc1)NC(=O)CNC(=O)[C@@H]1CCCN1C(=O)[C@@H]1CCCN1C(=O)[C@H](CCCNC(=N)N)NC(=O)[C@H](CCCCN)NC(C)=O)C(=O)O [Compound 20, AcLys(L-βNal^7, Ile^8)desArg^9BK] (Ac-KRPPGFS[2Nal]I-OH; C-terminus assumed) | 5.01 | Inactive | 7.76 | Inactive | 0 | 0.06 | 0 | 
4 | CC(C)C[C@H](NC(=O)[C@@H](Cc1ccc2ccccc2c1)NC(=O)[C@H](CO)NC(=O)[C@H](Cc1ccccc1)NC(=O)CNC(=O)[C@@H]1CCCN1C(=O)[C@@H]1CCCN1C(=O)[C@H](CCCNC(=N)N)NC(=O)[C@H](N)CCCNC(=N)N)C(=O)O [Compound 24, D-Arg(D-βNal^7, Leu^8)desArg^9BK] (H-[dR]RPPGFS[d2Nal]L-OH; N-terminus and C-terminus assumed) | 0.0501 | Inactive | 3.63 | Inactive |  |  |  | 
5 | CC[C@H](C)[C@H](NC(=O)[C@@H](Cc1ccc2ccccc2c1)NC(=O)[C@H](CO)NC(=O)[C@H](Cc1ccccc1)NC(=O)CNC(=O)[C@@H]1CCCN1C(=O)[C@@H]1CCCN1C(=O)[C@H](CCCNC(=N)N)NC(=O)[C@H](CCCCN)NC(=O)CCCCCNC(=O)[C@H](Cc1ccc(O)cc1)NC(=O)CNC)C(=O)O [Compound 29, SarTyrεAhxLys(D-βNal^7, Ile^8)desArg^9BK] (H-[Sar]Y[Ahx]KRPPGFS[d2Nal]I-OH; N-terminus and C-terminus assumed) | 0.00331 | Inactive | 6.31 | Inactive |  |  |  | 
6 | CC[C@H](C)[C@H](NC(=O)[C@@H](Cc1ccc2ccccc2c1)NC(=O)[C@H](CO)NC(=O)[C@H](Cc1ccccc1)NC(=O)CNC(=O)[C@@H]1CCCN1C(=O)[C@@H]1CCCN1C(=O)[C@H](CCCNC(=N)N)NC(=O)[C@H](CCCCN)NC(=O)CCCCCNC(=O)[C@H](Cc1cc(I)c(O)c(I)c1)NC(=O)CNC)C(=O)O [Compound 30, SarTyr(3,5-I)εAhxLys(D-βNal^7, Ile^8)desArg^9BK] (H-[Sar][Tyr(3,5-I2)][Ahx]KRPPGFS[d2Nal]I-OH; N-terminus and C-terminus assumed) | 0.00724 | Inactive | 7.41 | Inactive |  |  |  | 
7 | N=C(N)NCCC[C@@H](N)C(=O)N[C@@H](CCCNC(=N)N)C(=O)N1CCC[C@H]1C(=O)N1C[C@H](O)C[C@H]1C(=O)NCC(=O)N[C@@H](Cc1cccs1)C(=O)N[C@@H](CO)C(=O)N1Cc2ccccc2C[C@@H]1C(=O)N1[C@H](C(=O)O)C[C@@H]2CCCC[C@@H]21 [Compound 31, D-Arg(Hyp^3, Thi^5, D-Tic^7, Oic^8)desArg^9BK, reference compound] (H-[dR]RP[Hyp]G[2Thi]S[dTic][Oic]-OH; N-terminus and C-terminus assumed) | 0.158 |  | 0.0417 | Inactive |  |  |  | > 7.59
